From US20250092014A1, “COMPOUNDS AND METHODS OF ACTIVATING LIPOPROTEIN LIPASE” (Metrea Biosciences, Inc., priority 2021, published 2025)

Target: T1, LPL:sGPIHBP1 complex (Homo sapiens, UniProt P06858)
T1 sequence (P06858 28-475): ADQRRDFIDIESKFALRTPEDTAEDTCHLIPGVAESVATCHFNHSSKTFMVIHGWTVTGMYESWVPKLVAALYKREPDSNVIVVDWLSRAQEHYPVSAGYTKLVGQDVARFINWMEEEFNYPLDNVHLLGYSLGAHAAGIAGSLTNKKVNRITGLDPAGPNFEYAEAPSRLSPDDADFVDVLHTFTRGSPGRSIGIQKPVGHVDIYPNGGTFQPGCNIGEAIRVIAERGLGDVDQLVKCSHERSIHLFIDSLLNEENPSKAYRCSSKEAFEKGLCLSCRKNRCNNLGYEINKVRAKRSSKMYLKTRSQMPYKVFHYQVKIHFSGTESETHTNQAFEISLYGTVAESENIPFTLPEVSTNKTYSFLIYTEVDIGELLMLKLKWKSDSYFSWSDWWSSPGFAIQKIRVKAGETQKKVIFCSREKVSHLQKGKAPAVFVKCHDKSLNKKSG
T1 sequence (Q8IV16 21-151 partner limits assumed): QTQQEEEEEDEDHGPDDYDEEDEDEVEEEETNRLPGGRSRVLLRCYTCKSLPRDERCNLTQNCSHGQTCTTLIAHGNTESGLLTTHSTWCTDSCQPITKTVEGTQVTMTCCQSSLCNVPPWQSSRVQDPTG
Assay: RB assay (LPL:sGPIHBP1 pre-incubated with ANGPTL4, RB substrate)
Format: biochemical
Settings: read-out: RB qAC50
Protocol: The assay was performed in black 1536-well plates using purified proteins. To identify compounds that stimulate LPL activity either by directly activating LPL or by inhibiting the antagonist ANGPTL4, the LPL:sGPIHBP1 complex was pre-incubated with ANGPTL4 to decrease LPL activity by 80%. After a 60 min pre-incubation, the reaction was started by adding the RB substrate. 30 min after RB addition, the enzymatic reaction was stopped using SDS. Fluorescence intensity was measured 2 h after stopping the reaction.
20 or 40 nl of compound solution in 100% DMSO were placed in test plate. Then was added LPL:sGPIHBP1 to all wells (diluted in assay buffer to 5 nM; 2 μl/well). This was followed by an addition of ANGPTL4 to compounds and neutral controls (diluted in assay buffer to 20 nM; 1 μl/well). A buffer solution was added to the stimulator control (1 μl/well). The plates were then centrifuged and pre-incubated for 60 min at RT. The reaction was started by adding substrate to all wells (diluted in assay buffer to 40 μM, 1 μl/well). The plated were centrifuged (800 rpm for 1 min) and incubated 30 min at RT (=reaction time). The reaction was stopped by adding SDS to all wells (diluted in water to 2.5%, 2 μl/well); incubated 2 h at RT. The fluorescence intensity (ex 540 nm/em 590 nm) was measured on a Pherastar (BMG) using 5 flashes.

Row | SMILES | EC50
1 | C#CCn1nc(C(=O)Nc2cc(C(=O)Nc3ccc(F)cc3CC(=O)O)ccc2N2CCCCC2)c2ccccc21 [Compound 122, 2-(5-fluoro-2-(4-(piperidin-1-yl)-3-(1-(prop-2-yn-1-yl)-1H-indazole-3-carboxamido)benzamido)phenyl)acetic acid] | 3.8 µM
2 | O=C(O)Cc1cc(F)ccc1NC(=O)c1ccc(N2CCCCC2)c(NC(=O)c2cn(CC(F)(F)F)c3ccccc23)c1 [Compound 128, 2-(5-fluoro-2-(4-(piperidin-1-yl)-3-(1-(2,2,2-trifluoroethyl)-1H-indole-3-carboxamido)benzamido)phenyl)acetic acid] | 0.66 µM
3 | O=C(O)Cc1cc(F)ccc1NC(=O)c1ccc(N2CCCCC2)c(NC(=O)c2nn(C[C@@H]3CCCO3)c3ccccc23)c1 [Compound 136, (S)-2-(5-fluoro-2-(4-(piperidin-1-yl)-3-(1-((tetrahydrofuran-2-yl)methyl)-1H-indazole-3-carboxamido)benzamido)phenyl)acetic acid] | > 25 µM
4 | O=C(O)Cc1cc(F)ccc1NC(=O)c1ccc(N2CCCCC2)c(NC(=O)c2nn(CC(F)(F)F)c3cnccc23)c1 [Compound 112, 2-(5-fluoro-2-(4-(piperidin-1-yl)-3-(1-(2,2,2-trifluoroethyl)-1H-pyrazolo[3,4-c]pyridine-3-carboxamido)benzamido)phenyl)acetic acid] | 6.4 µM
5 | O=C(O)Cc1cc(F)ccc1NC(=O)c1ccc(N2CCCCC2)c(NC(=O)c2nn(CC(F)(F)F)cc2-c2ccccc2)c1 [Compound 115, 2-(5-fluoro-2-(3-(4-phenyl-1-(2,2,2-trifluoroethyl)-1H-pyrazole-3-carboxamido)-4-(piperidin-1-yl)benzamido)phenyl)acetic acid] | > 7.1 µM
6 | O=C(O)Cc1cc(F)ccc1NC(=O)c1ccc(N2CCCCC2)c(NC(=O)c2nn(CCN3CCCC3)c3ccccc23)c1 [Compound 101, 2-(5-fluoro-2-(4-(piperidin-1-yl)-3-(1-(2-(pyrrolidin-1-yl)ethyl)-1H-indazole-3-carboxamido)benzamido)phenyl)acetic acid] | > 25 µM
7 | CC#CCn1nc(C(=O)Nc2cc(C(=O)Nc3ccc(F)cc3CC(=O)O)ccc2N2CCCCC2)c2ccccc21 [Compound 123, 2-(2-(3-(1-(but-2-yn-1-yl)-1H-indazole-3-carboxamido)-4-(piperidin-1-yl)benzamido)-5-fluorophenyl)acetic acid] | 3.1 µM
8 | O=C(O)Cc1cc(F)ccc1NC(=O)c1ccc(N2CCCCC2)c(NC(=O)c2nn(CC(F)(F)F)c3ncccc23)c1 [Compound 113, 2-(5-fluoro-2-(4-(piperidin-1-yl)-3-(1-(2,2,2-trifluoroethyl)-1H-pyrazolo[3,4-b]pyridine-3-carboxamido)benzamido)phenyl)acetic acid] | 9 µM
9 | Cc1nc(C(=O)Nc2cc(C(=O)Nc3ccc(F)cc3CC(=O)O)ccc2N2CCCCC2)n2ccccc12 [Compound 110, 2-(5-fluoro-2-(3-(1-methylimidazo[1,5-a]pyridine-3-carboxamido)-4-(piperidin-1-yl)benzamido)phenyl)acetic acid] | > 7.1 µM
10 | O=C(O)Cc1cc(F)ccc1NC(=O)c1ccc(N2CCC(O)CC2)c(NC(=O)c2nn(CC(F)(F)F)c3ccccc23)c1 [Example 75] | > 25 µM
11 | O=C(O)Cc1cc(F)ccc1NC(=O)c1cnc(N2CCCCC2)c(NC(=O)c2nn(CC(F)(F)F)c3ccccc23)c1 [Compound 44, 2-(5-fluoro-2-(6-(piperidin-1-yl)-5-(1-(2,2,2-trifluoroethyl)-1H-indazole-3-carboxamido)nicotinamido)phenyl)acetic acid] | > 25 µM
12 | O=C(O)Cc1cc(F)ccc1NC(=O)c1ccc(N2CCOCC2)c(NC(=O)c2nn(CC(F)(F)F)c3ccccc23)c1 [Example 56] | 15 µM
13 | Cc1c(C(=O)Nc2ccc(F)cc2CC(=O)O)ccc(N2CCCCC2)c1NC(=O)c1nn(CC(F)(F)F)c2ccccc12 [Compound 42, 2-(5-fluoro-2-(2-methyl-4-(piperidin-1-yl)-3-(1-(2,2,2-trifluoroethyl)-1H-indazole-3-carboxamido)benzamido)phenyl)acetic acid] | > 25 µM
14 | O=C(O)Cc1cc(F)ccc1NC(=O)c1ccc(N2CCCCC2)c(NC(=O)c2cc(-c3ccccc3)nn2CC(F)(F)F)c1 [Compound 134, 2-(5-fluoro-2-(3-(3-phenyl-1-(2,2,2-trifluoroethyl)-1H-pyrazole-5-carboxamido)-4-(piperidin-1-yl)benzamido)phenyl)acetic acid] | 4.4 µM
15 | O=C(O)Cc1ccc(F)cc1NC(=O)c1ccc(N2CCCCC2)c(NC(=O)c2nn(CC(F)(F)F)c3ccccc23)c1 [Compound 38, 2-(4-fluoro-2-(4-(piperidin-1-yl)-3-(1-(2,2,2-trifluoroethyl)-1H-indazole-3-carboxamido)benzamido)phenyl)acetic acid] | 3.6 µM
16 | Cc1ccc2c(C(=O)Nc3cc(C(=O)Nc4ccc(F)cc4CC(=O)O)ccc3N3CCCCC3)nn(CC(F)(F)F)c2c1 [Compound 143, 2-(5-fluoro-2-(3-(6-methyl-1-(2,2,2-trifluoroethyl)-1H-indazole-3-carboxamido)-4-(piperidin-1-yl)benzamido)phenyl)acetic acid] | 5 µM
17 | CC(n1nc(C(=O)Nc2cc(C(=O)Nc3ccc(F)cc3CC(=O)O)ccc2N2CCCCC2)c2ccccc21)C(F)(F)F (stereo not drawn) [Compound 146, 2-(5-fluoro-2-(4-(piperidin-1-yl)-3-(1-(1,1,1-trifluoropropan-2-yl)-1H-indazole-3-carboxamido)benzamido)phenyl)acetic acid] | > 7.1 µM
18 | O=C(O)Cc1cc(F)ccc1NC(=O)c1ccc(N2CCC3(CC3)C2)c(NC(=O)c2nn(CC(F)(F)F)c3ccccc23)c1 [Example 53] | 6.8 µM
19 | O=C(O)Cc1cc(F)ccc1NC(=O)c1ccc(N2CCOC2=O)c(NC(=O)c2nn(CC(F)(F)F)c3ccccc23)c1 [Example 60] | > 25 µM
20 | Cc1cc(Cn2nc(C(=O)Nc3cc(C(=O)Nc4ccc(F)cc4CC(=O)O)ccc3N3CCCCC3)c3ccccc32)no1 [Compound 124, 2-(5-fluoro-2-(3-(1-((5-methylisoxazol-3-yl)methyl)-1H-indazole-3-carboxamido)-4-(piperidin-1-yl)benzamido)phenyl)acetic acid] | 4.7 µM
21 | CC(C1CCOCC1)n1nc(C(=O)Nc2cc(C(=O)Nc3ccc(F)cc3CC(=O)O)ccc2N2CCCCC2)c2ccccc21 (stereo not drawn) [Compound 148, 2-(5-fluoro-2-(4-(piperidin-1-yl)-3-(1-(1-(tetrahydro-2H-pyran-4-yl)ethyl)-1H-indazole-3-carboxamido)benzamido)phenyl)acetic acid] | > 25 µM
22 | O=C(O)Cc1ccccc1C(=O)Nc1ccc(N2CCCCC2)c(C(=O)Nc2nn(CC(F)(F)F)c3ccccc23)c1 [Compound 51, 2-(2-((4-(piperidin-1-yl)-3-((1-(2,2,2-trifluoroethyl)-1H-indazol-3-yl)carbamoyl)phenyl)carbamoyl)phenyl)acetic acid] | 4.1 µM
23 | Cc1c(C(=O)Nc2cc(C(=O)Nc3ccc(F)cc3CC(=O)O)ccc2N2CCCCC2)c2ccccc2n1CC(F)(F)F [Compound 130, 2-(5-fluoro-2-(3-(2-methyl-1-(2,2,2-trifluoroethyl)-1H-indole-3-carboxamido)-4-(piperidin-1-yl)benzamido)phenyl)acetic acid] | > 25 µM
24 | Cc1cccc2c(C(=O)Nc3cc(C(=O)Nc4ccc(F)cc4CC(=O)O)ccc3N3CCCCC3)nn(CC(F)(F)F)c12 [Compound 144, 2-(5-fluoro-2-(3-(7-methyl-1-(2,2,2-trifluoroethyl)-1H-indazole-3-carboxamido)-4-(piperidin-1-yl)benzamido)phenyl)acetic acid] | 5.8 µM
25 | O=C(O)Cc1cc(C(F)(F)F)ccc1NC(=O)c1ccc(N2CCCCC2)c(NC(=O)c2nn(CC(F)(F)F)c3ccccc23)c1 [Example 22] | 4.3 µM
26 | CCC(C(=O)O)c1cc(F)ccc1NC(=O)c1ccc(N2CCCCC2)c(NC(=O)c2nn(CC(F)(F)F)c3ccccc23)c1 (stereo not drawn) [Example 28] | 4.2 µM
27 | Cc1ccc2c(c1)c(C(=O)Nc1cc(C(=O)Nc3ccc(F)cc3CC(=O)O)ccc1N1CCCCC1)nn2CC(F)(F)F [Compound 142, 2-(5-fluoro-2-(3-(5-methyl-1-(2,2,2-trifluoroethyl)-1H-indazole-3-carboxamido)-4-(piperidin-1-yl)benzamido)phenyl)acetic acid] | > 7.1 µM
